# What was measured:
# [1] = system: Tetranychus urticae; assay: Acaricidal activity against Tetranychus urticae (two-spotted spider mite) reared on kidney bean leaves followed by compound exposure through leaf dipping assessed as mite mortality at 30 ppm measured after 3 days; type: functional; details: foliar, 72 h
# [2] = system: Tetranychus urticae; assay: Acaricidal activity against Tetranychus urticae (two-spotted spider mite) reared on kidney bean leaves followed by compound exposure through leaf dipping assessed as mite mortality at 300 ppm measured after 3 days; type: functional; details: foliar, 72 h
# [3] = Toxicity against Oryzias latipes (Japanese medaka) assessed as fish mortality at 0.5 ppm measured after 3 days; type: organism-based; details: in vivo
# [4] = Toxicity against Oryzias latipes (Japanese medaka) assessed as fish mortality at 0.05 ppm measured after 3 days; type: organism-based; details: in vivo
# [5] = system: Tetranychus urticae; assay: Acaricidal activity against Tetranychus urticae (two-spotted spider mite) reared on kidney bean leaves followed by compound exposure through leaf dipping assessed as mite mortality at 3 ppm measured after 3 days; type: functional; details: foliar, 72 h
# [6] = system: Tetranychus urticae; assay: Acaricidal activity against Tetranychus urticae (two-spotted spider mite) reared on kidney bean leaves followed by compound exposure through leaf dipping assessed as mite mortality at 10 ppm measured after 3 days; type: functional; details: foliar, 72 h
SMILES,mortality at 30 ppm [1],mortality at 300 ppm [2],"mortality at 72 h, 0.5 ppm [3]","mortality at 72 h, 0.05 ppm [4]",mortality at 3 ppm [5],mortality at 10 ppm [6]
CCOCCc1ccc(OCCN(C(C)=O)C(=O)c2cc(C3CC3)nn2C)c(C)c1,0%,100%,51%,0%,,
CCOCCc1ccc(OCCN(C(C)=O)C(=O)c2cc(C(C)(C)C)nn2C)c(C)c1,100%,100%,1%,0%,0%,80%
CCOCCc1ccc(OCCN(C(=O)CC)C(=O)c2cc(C(C)(C)C)nn2C)c(C)c1,100%,100%,1%,0%,0%,0%
CCOCCc1ccc(OCCN(C(=O)c2cc(C(C)(C)C)nn2C)C(=O)C(C)C)c(C)c1,100%,100%,0%,0%,0%,100%
CCOCCc1ccc(OCCN(C(=O)c2cc(C(C)(C)C)nn2C)C(=O)C2CC2)c(C)c1,100%,100%,0%,0%,0%,30%
CCOCCc1ccc(OCCN(C(=O)c2ccccc2)C(=O)c2cc(C(C)(C)C)nn2C)c(C)c1,100%,100%,0%,0%,0%,0%
CCOCCc1ccc(OCCNC(=O)c2cc(CC)nn2C)c(C)c1,30%,100%,100%,51%,0%,0%
CCCc1cc(C(=O)NCCOc2ccc(CCOCC)cc2C)n(C)n1,0%,0%,100%,1%,0%,0%
CCOCCc1ccc(OCCNC(=O)c2cc(C(C)(C)C)nn2C)c(C)c1,30%,100%,100%,1%,0%,0%
CCOCCc1ccc(OCCNC(=O)c2c(Cl)c(C)nn2C)c(C)c1,100%,100%,100%,100%,0%,100%
CCOCCc1ccc(OCCNC(=O)c2c(Cl)c(CC)nn2C)c(C)c1,100%,100%,100%,100%,0%,100%
CCOCCc1ccc(OCCNC(=O)c2c(Cl)c(C(C)(C)C)nn2C)c(C)c1,30%,30%,0%,0%,0%,30%
CCOCCc1ccc(OCCN(C(C)=O)C(=O)c2c(Cl)cnn2C)c(C)c1,0%,0%,0%,0%,,
CCOCCc1ccc(OCCN(C(C)=O)C(=O)c2c(Cl)c(C)nn2C)c(C)c1,100%,100%,100%,1%,30%,80%
CCOCCc1ccc(OCCN(C(C)=O)C(=O)c2c(Cl)c(CC)nn2C)c(C)c1,100%,100%,100%,51%,0%,30%
CCCc1nn(C)c(C(=O)N(CCOc2ccc(CCOCC)cc2C)C(C)=O)c1Cl,0%,0%,100%,0%,,
CCOCCc1ccc(OCCN(C(C)=O)C(=O)c2c(Cl)c(C(C)(C)C)nn2C)c(C)c1,0%,80%,0%,0%,,
CCOCCc1ccc(OCCN(C(=O)CC)C(=O)c2c(Cl)c(C)nn2C)c(C)c1,100%,100%,100%,0%,0%,100%
CCCC(=O)N(CCOc1ccc(CCOCC)cc1C)C(=O)c1c(Cl)c(C)cn1C,100%,100%,100%,0%,0%,30%
CCCCCC(=O)N(CCOc1ccc(CCOCC)cc1C)C(=O)c1c(Cl)c(C)nn1C,100%,100%,100%,1%,30%,80%
CCCCCCCCCCC(=O)N(CCOc1ccc(CCOCC)cc1C)C(=O)c1c(Cl)c(C)nn1C,100%,100%,51%,0%,0%,0%
CCOCCc1ccc(OCCN(C(C)=O)C(=O)c2cc(C)nn2C)c(C)c1,100%,100%,1%,0%,0%,0%
CCOCCc1ccc(OCCN(C(C)=O)C(=O)c2cc(CC)nn2C)c(C)c1,100%,100%,100%,0%,0%,0%
CCCc1cc(C(=O)N(CCOc2ccc(CCOCC)cc2C)C(C)=O)n(C)n1,30%,100%,51%,0%,0%,0%
CCOCCc1ccc(OCCN(C(C)=O)C(=O)c2cc(C(C)C)nn2C)c(C)c1,100%,100%,100%,0%,0%,30%
CCOCCc1ccc(OCCNC(=O)c2cc(C)nn2C)c(C)c1,0%,30%,0%,0%,0%,0%
